Laboratory results as given in US20100184807A1, “Methods to inhibit tumor cell growth by using proton pump inhibitors” (Bio-Quant, Inc., priority 2008, published 2010).

Legend:
Format in all cases: cell-based
[1] = system: HCT-15 (colon cancer); assay: MTT tumor cell growth assay; settings: HCT-15 cells, lansoprazole 1-100 μM, 48 hours
Protocol: (§1) In one study, adherent cells were plated approximately 16-24 hours before the day of the experiment in 180 μl growth media. On the day of the experiment, the plated adherent cells were analyzed and counted and suspension cells were plated in 180 μl growth media. 10× lansoprazole compounds and vehicle was prepared. The 10× lansoprazole compounds were prepared by diluting lansoprazole to final concentrations of 100 μM, 30 μM, 10 μM, 3 μM, and 1 μM. A vehicle was prepared by preparing a solution of PBS, equivalent to the volume used for 10 μM lansoprazole wherein the 1× solution constitutes ˜0.06% PBS. 10 μl of the various 10× lansoprazole solutions and the vehicle were added to the cells. The cells were incubated at 37° C., 5% CO2 for 48 hours. The media was then aspirated. The cell suspension was then spun at 1500 RPM for 10 minutes. The media was slowly removed. 200 μl of MTT solution was added to each well with a concentration of 0.863 mg/ml MTT in the growth media. The cells were incubated at 37° C., 5% CO2 for 4 hours and the medium is then aspirated. The plate containing the cell suspension was then spun at 1500 RPM for 10 minutes. The media was slowly removed using a multichannel pipettor. 100 μl of DMSO was then added to each well. The cells were incubated at 37° C., 5% CO2 for 5 minutes and the absorbance was obtained at 560 nm using a Dynex Opsys MR plate reader. The cells used for this procedure were the following cell lines: IGROV1 (ovarian cancer); OVCAR 8 (ovarian cancer); ES-2 (ovarian cancer); CAOV3 (ovarian cancer); OVCAR5 (ovarian cancer); SUDHL4 (lymphoma); RPMI8226 (myeloma); RPMI6666 (Hodgkin's lymphoma); NC37 (lymphoma); GDM-1 (leukemia); MC/CAR (prostate cancer); DU-145 (prostate cancer), J45-01 (leukemia), MOLT3 (leukemia), HUT78, J-gamma-1 (leukemia), MCF7 […], COL0205 (colon cancer), HL60 CLONE 15 (leukemia), T47D (breast cancer), P116 (intestinal cancer), KU812 (leukemia), SW620 (colon cancer), MK92-M1 (lymphoma), MV-4-11 (leukemia), HS578T (breast cancer), HT29 (colon cancer), HCT 116 (colon cancer), CAKI-1 (kidney cancer), A549 (lung cancer), H460 (lung cancer), A3 (colon cancer), MDA-MB231 […], MALME 3M (melanoma), RXF393 (kidney cancer), RS4.11 (leukemia), PC3 (prostate cancer), OVCAR3 (ovarian cancer), MDA-MB435 (melanoma), HUT102 (lymphoma), HL60 (leukemia), CCRF-CEM (leukemia), HUT78 (lymphoma), 786-O (kidney cancer), ACHN (kidney cancer), A498 (kidney cancer), H226 (lung cancer), H522 (lung cancer), HOP92 (lung cancer), SNB 19 (brain cancer), OVCAR4 (ovarian cancer), H9 (lymphoma), UO-31 (kidney cancer), HH (lymphoma), DAUDI (leukemia), LOXIMVI (melanoma), NAMALWA (lymphoma), EKVX (lung cancer), DOHH2 (lymphoma), SNB75 (brain cancer), SKMEL28 (melanoma), SKMEL5 (melanoma), SKMEL2 (melanoma), M14 (melanoma), UACC 257 (melanoma), H332M (lung cancer), KM12 (colon cancer), HCC2998 (colon cancer), G401 (kidney cancer), RS1184 (lymphoma), MC116 (leukemia), MOLT4 (leukemia), JM1 (liver cancer), HOP-62 (lung cancer), HCT-15 (colon cancer), SF-539 (brain cancer), SF295 (brain cancer), ST486 (lymphoma), U251 (brain cancer), and UACC-62 (melanoma).

[2] = system: MOLT3 (leukemia); assay: MTT tumor cell growth assay; settings: MOLT3 cells, lansoprazole 1-100 μM, 48 hours
Protocol: as §1

[3] = system: SW620 (colon cancer); assay: MTT tumor cell growth assay; settings: SW620 cells, lansoprazole 1-100 μM, 48 hours
Protocol: as §1

[4] = system: OVCAR4 (ovarian cancer); assay: MTT tumor cell growth assay; settings: OVCAR4 cells, lansoprazole 1-100 μM, 48 hours
Protocol: as §1

[5] = system: RS4.11 (leukemia); assay: MTT tumor cell growth assay; settings: RS4.11 cells, lansoprazole 1-100 μM, 48 hours
Protocol: as §1

[6] = system: A3 (colon cancer); assay: MTT tumor cell growth assay; settings: A3 cells, lansoprazole 1-100 μM, 48 hours
Protocol: as §1

[7] = system: MDA-MB-435 (melanoma); assay: MTT tumor cell growth assay; settings: MDA-MB-435 cells, lansoprazole 1-100 μM, 48 hours
Protocol: as §1

[8] = system: H322M; assay: MTT tumor cell growth assay; settings: H322M cells, lansoprazole 1-100 μM, 48 hours
Protocol: as §1

[9] = system: SKMEL2 (melanoma); assay: MTT tumor cell growth assay; settings: SKMEL2 cells, lansoprazole 1-100 μM, 48 hours
Protocol: as §1

[10] = system: UACC257 (melanoma); assay: MTT tumor cell growth assay; settings: UACC257 cells, lansoprazole 1-100 μM, 48 hours
Protocol: as §1

[11] = system: NAMALWA (lymphoma); assay: MTT tumor cell growth assay; settings: NAMALWA cells, lansoprazole 1-100 μM, 48 hours
Protocol: as §1

[12] = system: IGROV 1 (ovarian cancer); assay: MTT tumor cell growth assay; settings: IGROV 1 cells, lansoprazole 1-100 μM, 48 hours
Protocol: as §1

[13] = system: HH (lymphoma); assay: MTT tumor cell growth assay; settings: HH cells, lansoprazole 1-100 μM, 48 hours
Protocol: as §1

[14] = system: HL60 (leukemia); assay: MTT tumor cell growth assay; settings: HL60 cells, lansoprazole 1-100 μM, 48 hours
Protocol: as §1

[15] = MTT tumor cell growth assay; settings: MCF7 cells, lansoprazole 1-100 μM, 48 hours
Protocol: as §1

[16] = system: H522 (lung cancer); assay: MTT tumor cell growth assay; settings: H522 cells, lansoprazole 1-100 μM, 48 hours
Protocol: as §1

[17] = system: MDA-MB-231; assay: MTT tumor cell growth assay; settings: MDA-MB-231 cells, lansoprazole 1-100 μM, 48 hours
Protocol: as §1

[18] = system: KU812 (leukemia); assay: MTT tumor cell growth assay; settings: KU812 cells, lansoprazole 1-100 μM, 48 hours
Protocol: as §1

Measured: tumor cell growth reduction

Cc1c(OCC(F)(F)F)ccnc1C[S+]([O-])c1nc2ccccc2[nH]1 (stereo not drawn) [lansoprazole]
significant tumor cell growth reduction: all assays above
